# Experimental data taken from patent publication US20250257034A1, “INDOLE DERIVATIVES AS SEROTONERGIC AGENTS USEFUL FOR THE TREATMENT OF DISORDERS RELATED THERETO” (priority 2023, published 2025).
# Like-named read-outs stand apart in the source and are kept apart here.
# Columns and labels:
# [1] = Human liver microsomes stability; assay type: in vitro ADME; conditions: human liver microsomes
# Protocol: (§1) The objective of this study was to estimate in vitro metabolic stability of exemplary compounds of Formula (I) or a pharmaceutically acceptable salt, solvate, and/or prodrug thereof in pooled human, male rat, and male mouse liver microsomes. The concentrations of compounds in reaction systems were evaluated by LC-MS/MS for estimating the stability in pooled human, male rat, and male mouse liver microsomes. The in vitro intrinsic clearances of test compounds were determined as well.
# (§2) A master solution in the “Incubation Plate” containing phosphate buffer, ultra-pure H2O, MgCl2 solution and liver microsomes was made according to Table 33. The mixture was pre-warmed at 37° C. water bath for 5 minutes.
# (§3) 40 μL of 10 mM nicotinamide adenine dinucleotide phosphate (NADPH) solution was added to each well. The final concentration of NADPH was 1 mM. The negative control samples were prepared by replacing NADPH with 40 μL of ultra-pure H2O. Samples were prepared in duplicate. Negative controls were prepared in singlet.
# (§4) The reaction was started with the addition of 4 μL of 200 μM exemplary test compounds of the disclosure or control compounds to each master solution to get the final concentration of 2 μM. This study was performed in duplicate.
# (§5) Aliquots of 50 μL were taken from the reaction solution at 0, 15, 30, 45, and 60 minutes. The reaction solutions were stopped by the addition of 4 volumes of cold methanol with IS (100 nM alprazolam, 200 nM imipramine, 200 nM labet alol and 2 μM ketoprofen). Samples were centrifuged at 3,220 g for 40 minutes. Aliquot of 90 μL of the supernatant was mixed with 90 μL of ultra-pure H2O and then was used for LC-MS/MS analysis.
# (§6) LC/MS analysis was performed for all samples from this study using a Shimadzu liquid chromatograph separation system equipped with degasser DGU-20A5R; solvent delivery unit LC-30AD; system controller SIL-30AC; column oven CTO-30A; CTC Analytics HTC PAL System. Mass spectrometric analysis was performed using a Triple Quad™ 5500 instrument.
# (§7) All calculations were carried out using Microsoft Excel. Peak area ratios of test compound to internal standard (listed in the below table) were determined from extracted ion chromatograms.
# (§8) All calculations were carried out using Microsoft Excel. Peak areas were determined from extracted ion chromatograms. The slope value, k, was determined by linear regression of the natural logarithm of the remaining percentage of the parent drug vs. incubation time curve.
# (§9) The in vitro half-life (in vitro t1/2) was determined from the slope value:
# (§10) Conversion of the in vitro t1/2(min) into the in vitro intrinsic clearance (in vitro CLint, in μL/min/mg proteins) was done using the following equation (mean of duplicate determinations): […]
# (§11) A master solution in the “Incubation Plate” containing phosphate buffer, ultra-pure H2O, MgCl2 solution and liver microsomes was made according to Table 63. The mixture was pre-warmed at 37° C. water bath for 5 minutes.
# (§12) 40 μL of 10 mM NADPH solution was added to each well. The final concentration of NADPH was 1 mM. The negative control samples were prepared by replacing NADPH with 40 μL of ultra-pure H2O. Samples were prepared in duplicate. Negative controls were prepared in singlet.
# (§13) Conversion of the in vitro t1/2(min) into the in vitro intrinsic clearance (in vitro C Lt, in μL/min/mg proteins) was done using the following equation (mean of duplicate determinations): […]
# [2] = Pharmacokinetic studies in rat (i.v.); assay type: in vivo; conditions: male, Sprague-Dawley, rat, plasma, dose 1.37 mg/kg (I-71, I-128), 1.33 mg/kg ((S) I-67); for concentration at 0.25 h / concentration at 1 h / concentration at 4 h: intravenous, rat i.v.; for AUC(0-t) / half-life: iv, rat plasma, i.v.; for half-life: estimated from 2 points only
# Protocol: Animals: Male Sprague-Dawley rats (˜225-350 g) from Charles River Labs were acclimatized for a minimum of 5 days prior to start of study procedures. Body weights were recorded on the day of dosing.
# Any abnormalities were documented including presence/absence of wet dog shakes/back muscle contractions (WDS/BMC).
# Dosing: Formulations were administered intravenously (i.v.) via the tail vein using a 25 G needle connected to a 1 cc syringe.
# The Compounds of Formula (I) were freshly prepared at the appropriate concentrations in 5% Tween-80 in saline.
# Blood collection time (h): 0.25, 1 and 4.
# Volume/time-point: ˜0.25 mL […] (saphenous vein).
# Instrumentation: AB Sciex QTRAP 4000 or 6500 MS/MS system equipped with an LC system with a binary pump, a solvent degasser, a thermostatted column compartment and a multiplate autosampler.
# Analysis software: Phoenix® WinNonlin® 8.3 (Pharsight, Certara, Mountainview, CA).
# Analysis methods: non-compartmental analysis, linear up/log down trapezoidal rule.
# PK parameters: t1/2 and AUC0-tlast were be estimated.
# Volume/time-point: ˜0.25 mL (saphenous vein).
# PK parameters: t1/2 and AUC0-tlast were estimated.
# [3] = Mouse liver microsomes stability; assay type: in vitro ADME; conditions: mouse liver microsomes
# Protocol: as §1, §2, §3, §4, §5, §6, §7, §8, §9, §10, §11, §12, §13
# [4] = Rat liver microsomes stability; assay type: in vitro ADME; conditions: rat liver microsomes
# Protocol: as §1, §2, §3, §4, §5, §6, §7, §8, §9, §10, §11, §12, §13
# [5] = first individual rat (R01/R04), read-out: Plasma concentration
# [6] = mean of 3 rats, read-out: Plasma concentration, Mean ± SD
# [7] = second individual rat (R02/R05), read-out: Plasma concentration
# [8] = third individual rat (R03/R06), read-out: Plasma concentration
# [9] = male, pooled liver microsomes, 2 μM compound, 0.5 mg/mL
# [10] = male, pooled liver microsomes, read-out: Scaled-up CLint
structure (smiles),measurement,setting,value
"COc1ccc2[nH]cc(CCN3CC[C@H](OC(F)F)C3)c2c1 [(S) I-67, (S)-3-(2-(3-(Difluoromethoxy)pyrrolidin-1-yl)ethyl)-5-methoxy-1H-indole]",Predicted hepatic CL,[1],13.30 mL/min/kg
same,half-life at 2 μM,"[1]; 2 μM compound, 0.5 mg/mL",46.8 min
same,microsomal CLint at 2 μM,"[1]; 2 μM compound, 0.5 mg/mL, read-out: CLint (μL/min/mg protein)",29.6 µL/min/mg
same,Remaining Percentage (%),"[1]; With Cofactors, 0 min",100.00%
same,Remaining Percentage (%),"[1]; With Cofactors, 30 min",66.20%
same,Remaining Percentage (%),"[1]; With Cofactors, 60 min",41.10%
same,Remaining Percentage (%),"[1]; Without Cofactors, 0 min",100.00%
same,Remaining Percentage (%),"[1]; Without Cofactors, 30 min",98.68%
same,Remaining Percentage (%),"[1]; Without Cofactors, 60 min",100.00%
same,CLint scaled at 2 μM,[1]; read-out: Scaled-up CLint,37.2 mL/min/kg
same,concentration at 0.25 h,[2]; [5],413 ng/mL
same,concentration at 0.25 h,[2]; [6],436 ± 32.4 ng/mL
same,concentration at 0.25 h,[2]; [7],473 ng/mL
same,concentration at 0.25 h,[2]; [8],422 ng/mL
same,concentration at 1 h,[2]; [5],172 ng/mL
same,concentration at 1 h,[2]; [6],162 ± 9.07 ng/mL
same,concentration at 1 h,[2]; [7],155 ng/mL
same,concentration at 1 h,[2]; [8],158 ng/mL
same,concentration at 4 h,[2]; [5],5.35 ng/mL
same,concentration at 4 h,[2]; [6],6.96 ± 1.54 ng/mL
same,concentration at 4 h,[2]; [7],8.41 ng/mL
same,concentration at 4 h,[2]; [8],7.12 ng/mL
same,AUC(0-t),"[2]; first individual rat (R01/R04), read-out: AUC0-tlast",470 ng·h/mL
same,half-life,"[2]; first individual rat (R01/R04), read-out: Apparent t1/2 (converted)",35.9 min
same,AUC(0-t),"[2]; mean of 3 rats, read-out: AUC0-tlast, Mean ± SD",484 ± 21.1 ng·h/mL
same,half-life,"[2]; mean of 3 rats, read-out: Apparent t1/2, Mean ± SD (converted)",38.2 ± 2.02 min
same,AUC(0-t),"[2]; second individual rat (R02/R05), read-out: AUC0-tlast",508 ng·h/mL
same,half-life,"[2]; second individual rat (R02/R05), read-out: Apparent t1/2 (converted)",39.8 min
same,AUC(0-t),"[2]; third individual rat (R03/R06), read-out: AUC0-tlast",472 ng·h/mL
same,half-life,"[2]; third individual rat (R03/R06), read-out: Apparent t1/2 (converted)",38.8 min
same,microsomal CLint at 2 μM,"[3]; male, mouse, pooled liver microsomes, 2 μM compound, 0.5 mg/mL, read-out: CLint (μL/min/mg protein)",69.3 µL/min/mg
same,half-life at 2 μM,[3]; [9],20 min
same,CLint scaled at 2 μM,[3]; [10],303 mL/min/kg
same,Predicted hepatic CL,[3],69.41 mL/min/kg
same,Remaining Percentage (%),"[3]; With Cofactors, 0 min",100.00%
same,Remaining Percentage (%),"[3]; With Cofactors, 30 min",34.21%
same,Remaining Percentage (%),"[3]; With Cofactors, 60 min",12.49%
same,Remaining Percentage (%),"[3]; Without Cofactors, 0 min",100.00%
same,Remaining Percentage (%),"[3]; Without Cofactors, 30 min",103.46%
same,Remaining Percentage (%),"[3]; Without Cofactors, 60 min",100.35%
same,half-life at 2 μM,[4]; [9],< 4.51 min
same,CLint scaled at 2 μM,[4]; [10],> 550 mL/min/kg
same,microsomal CLint at 2 μM,"[4]; male, rat, pooled liver microsomes, 2 μM compound, 0.5 mg/mL, read-out: CLint (μL/min/mg protein)",> 307 µL/min/mg
same,Predicted hepatic CL,[4],>50.17 mL/min/kg
same,Remaining Percentage (%),"[4]; With Cofactors, 0 min",100.00%
same,Remaining Percentage (%),"[4]; With Cofactors, 30 min",0.00%
same,Remaining Percentage (%),"[4]; With Cofactors, 60 min",0.00%
same,Remaining Percentage (%),"[4]; Without Cofactors, 0 min",100.00%
same,Remaining Percentage (%),"[4]; Without Cofactors, 30 min",99.06%
same,Remaining Percentage (%),"[4]; Without Cofactors, 60 min",96.86%
